From patent publication US10272086B2 (CHANG GUNG MEMORIAL HOSPITAL, LINKOU, priority 2013, dated 2019)

What was measured:
[1] = Topical Minoxidil on forehead acne in a patient, 7-day course; type: in vivo, human
Protocol: An in vivo evaluation of topical Minoxidil on acne was carried out in a patient. […] In addition, there was less new […] formation on the left (treated) forehead compared to the right (untreated) forehead.

[2] = target: T1, glucocorticoid receptor (GR) (Homo sapiens, UniProt P04150); test: Glucocorticoid receptor transcriptional activity reporter assay in PC-3 cells (control study); type: cell-based
T1 construct: host or cells: PC-3
T1 sequence (P04150 1-777): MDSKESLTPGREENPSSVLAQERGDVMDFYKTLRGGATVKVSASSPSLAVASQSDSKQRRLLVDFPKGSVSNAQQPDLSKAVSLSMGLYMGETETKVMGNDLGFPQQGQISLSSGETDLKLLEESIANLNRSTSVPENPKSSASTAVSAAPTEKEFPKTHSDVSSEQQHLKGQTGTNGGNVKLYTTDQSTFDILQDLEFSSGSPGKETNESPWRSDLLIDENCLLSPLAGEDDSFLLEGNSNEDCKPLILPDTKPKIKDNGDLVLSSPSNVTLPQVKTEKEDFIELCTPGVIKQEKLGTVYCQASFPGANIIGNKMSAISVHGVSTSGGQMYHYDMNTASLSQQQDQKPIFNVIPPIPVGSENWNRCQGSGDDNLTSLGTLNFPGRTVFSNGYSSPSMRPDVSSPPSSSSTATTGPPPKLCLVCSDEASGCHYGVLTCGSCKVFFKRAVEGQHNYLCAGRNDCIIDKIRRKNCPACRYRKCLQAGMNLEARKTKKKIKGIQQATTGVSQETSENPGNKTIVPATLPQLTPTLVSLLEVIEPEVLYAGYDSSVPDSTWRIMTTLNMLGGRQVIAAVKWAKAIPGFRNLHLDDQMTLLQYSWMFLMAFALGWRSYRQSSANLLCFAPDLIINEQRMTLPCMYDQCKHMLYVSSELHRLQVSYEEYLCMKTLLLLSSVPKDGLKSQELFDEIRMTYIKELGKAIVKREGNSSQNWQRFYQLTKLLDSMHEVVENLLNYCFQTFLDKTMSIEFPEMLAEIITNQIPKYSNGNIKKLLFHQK

[3] = Topical 5% Minoxidil on an acne on a patient's face, two applications; type: in vivo, human
[4] = test system: PSA (prostate specific antigen) protein expression; test: Western blot of AR regulated PSA protein expression in LNCaP cells; type: cell-based, human; conditions: 10^−3˜10^−5 M Minoxidil, 24 h
Protocol: The cells were prepared for electrophoresis on SDS/PAGE gel and then transferred onto nitrocellulose (Minipore, Billerica, USA). AR, PSA and beta-actin proteins were identified using anti-AR (N-20 from Santa Cruz Biotechnology, Santa Cruz, USA), anti-PSA (C-19 from Santa Cruz Biotechnology, Santa Cruz, USA), or […] (MAB1501 from Millipore, Billerica, USA) respectively. Images were shown using alkaline phosphatase substrate color kit (Bio-Rad, Hercules, USA).

[5] = Double-blind clinical trial of topical Minoxidil versus placebo in patients with acne; type: in vivo, human
Protocol: A double-blind clinical trial is conducted, in which topical Minoxidil and placebo are administered to patients with acne.

For `Nc1cc(N2CCCCC2)nc(N)[n+]1[O-]` [Minoxidil, 6-piperidin-1-ylpyrimidine-2,4-diamine 3-oxide], the “New pimple formation, treated versus untreated forehead” value ([1]; 5% Minoxidil solution, topical, once a day for 7 days) was “less new pimple formation on the left (treated) forehead”, the “Pimples on treated forehead” value ([1]; 5% Minoxidil solution, topical, once a day for 7 days, left forehead treated, right forehead control) was “disappearance of pimples on the left (treated) forehead” and the “Healing time of acne” value ([1]; 5% topical Minoxidil, 7-day course) was “faster healing time”. The GR transcriptional activity ([2]; highest concentration 100 μM) was “did affect GR transcriptional activity”, the GR transcriptional activity ([2]; lower concentrations 1-10 μM) was “did not” and the “Erythema and swelling around the acne” value ([3]; 5% Minoxidil, topical, after two applications) was “significant reduction in erythema and swelling around the acne”. The “Efficacy in treating acne” value ([3]; 5% topical Minoxidil, 48-hour period) was “effective in treating acne”, the “AR regulated PSA protein expression” value [4] was “effective in inhibiting AR regulated PSA protein expression in the presence of DHT, in a dose dependent manner” and the “Symptoms and signs of acne in comparison with the placebo group” value [5] was “statistically significant reduction in the symptoms and signs of acne”.
